Reference: patent US20240083897A1, “GCN2 MODULATING COMPOUNDS AND USES THEREOF” (HiberCell, Inc., priority 2021, published 2024)
Read-outs that look alike come from different tables or passages of the source.

Biological target: GCN2 (Homo sapiens (Human), UniProt Q9P2K8)
Experiment: TR-FRET biochemical assay for inhibition of GCN2
[1] = GCN2 2 nM, 100 nM GFP-eIF2a, 150 μM ATP, TR-FRET

GCN2, sequence (Q9P2K8 whole entry): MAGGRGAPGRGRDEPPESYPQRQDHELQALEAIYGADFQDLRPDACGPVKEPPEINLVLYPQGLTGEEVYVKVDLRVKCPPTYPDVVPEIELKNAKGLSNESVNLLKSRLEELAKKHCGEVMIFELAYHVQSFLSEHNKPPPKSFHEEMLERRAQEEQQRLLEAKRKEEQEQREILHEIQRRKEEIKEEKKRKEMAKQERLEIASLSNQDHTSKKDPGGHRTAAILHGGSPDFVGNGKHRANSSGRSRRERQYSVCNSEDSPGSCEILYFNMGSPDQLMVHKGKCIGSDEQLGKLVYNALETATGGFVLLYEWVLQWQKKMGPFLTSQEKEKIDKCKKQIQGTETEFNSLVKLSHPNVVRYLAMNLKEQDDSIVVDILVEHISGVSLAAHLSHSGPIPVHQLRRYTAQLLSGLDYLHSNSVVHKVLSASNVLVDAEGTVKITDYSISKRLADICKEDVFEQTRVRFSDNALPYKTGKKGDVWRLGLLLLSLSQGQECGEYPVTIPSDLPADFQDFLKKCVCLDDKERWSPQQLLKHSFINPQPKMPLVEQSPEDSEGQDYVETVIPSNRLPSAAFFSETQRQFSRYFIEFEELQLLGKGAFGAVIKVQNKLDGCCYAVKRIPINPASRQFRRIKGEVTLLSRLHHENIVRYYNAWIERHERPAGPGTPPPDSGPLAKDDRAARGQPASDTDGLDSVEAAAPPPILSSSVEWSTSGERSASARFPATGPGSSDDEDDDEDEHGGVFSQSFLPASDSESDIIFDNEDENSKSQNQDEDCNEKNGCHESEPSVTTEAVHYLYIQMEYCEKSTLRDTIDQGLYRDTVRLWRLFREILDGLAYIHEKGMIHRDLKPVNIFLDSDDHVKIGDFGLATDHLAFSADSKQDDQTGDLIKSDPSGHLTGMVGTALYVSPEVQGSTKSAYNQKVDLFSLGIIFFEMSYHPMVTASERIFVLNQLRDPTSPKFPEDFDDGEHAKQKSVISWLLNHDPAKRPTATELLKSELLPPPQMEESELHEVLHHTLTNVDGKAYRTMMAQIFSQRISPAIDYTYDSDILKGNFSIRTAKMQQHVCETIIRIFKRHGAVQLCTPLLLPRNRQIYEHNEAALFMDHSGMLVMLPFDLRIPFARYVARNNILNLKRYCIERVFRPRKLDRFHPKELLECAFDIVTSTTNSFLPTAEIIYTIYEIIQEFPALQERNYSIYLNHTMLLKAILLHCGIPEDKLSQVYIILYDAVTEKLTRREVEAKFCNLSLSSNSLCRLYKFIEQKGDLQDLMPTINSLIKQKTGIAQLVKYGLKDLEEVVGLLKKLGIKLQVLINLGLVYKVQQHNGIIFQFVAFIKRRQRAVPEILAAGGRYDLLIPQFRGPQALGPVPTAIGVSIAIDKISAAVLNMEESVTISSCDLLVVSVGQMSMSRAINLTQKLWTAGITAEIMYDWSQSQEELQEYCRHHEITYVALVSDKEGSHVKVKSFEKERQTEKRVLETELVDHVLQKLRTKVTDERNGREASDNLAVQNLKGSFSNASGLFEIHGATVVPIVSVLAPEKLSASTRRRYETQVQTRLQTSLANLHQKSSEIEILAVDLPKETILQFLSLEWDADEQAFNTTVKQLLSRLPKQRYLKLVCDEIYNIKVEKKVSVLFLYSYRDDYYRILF

| SMILES | IC50 [1] [nM] | IC50 [nM] |
| --- | --- | --- |
| COc1ncc(Cl)cc1S(=O)(=O)Nc1ccc(F)c([C@@H]2CCc3c(-c4nnc(C)[nH]4)ncn3C2)c1F [Compound 130-1, 5-chloro-N-[2,4-difluoro-3-[(6S)-1-(5-methyl-4H-1,2,4-triazol-3-yl)-5H,6H,7H,8H-imidazo[1,5-a]pyridin-6-yl]phenyl]-2-methoxypyridine-3-sulfonamide] | < 50 | – |
| CNC(=O)c1ncn2cc(-c3c(F)ccc(NS(=O)(=O)c4cc(Cl)cnc4C)c3F)ncc12 [Compound 93, 6-[3-(5-chloro-2-methylpyridine-3-sulfonamido)-2,6-difluorophenyl]-N-methylimidazo[1,5-a]pyrazine-1-carboxamide] | < 50 | – |
| Cc1ncc(F)cc1S(=O)(=O)Nc1ccc(F)c(-c2ccc3c(-n4cnnn4)ncn3c2)c1F [Compound 76, N-[2,4-difluoro-3-[1-(1,2,3,4-tetrazol-1-yl)imidazo[1,5-a]pyridin-6-yl]phenyl]-5-fluoro-2-methylpyridine-3-sulfonamide] | < 50 | – |
| Cc1ncc(F)cc1S(=O)(=O)Nc1ccc(F)c([C@H]2CCc3c(-c4ncc[nH]4)ncn3C2)c1F [Compound 80-1, N-[2,4-difluoro-3-[(6R)-1-(1H-imidazol-2-yl)-5H,6H,7H,8H-imidazo[1,5-a]pyridin-6-yl]phenyl]-5-fluoro-2-methylpyridine-3-sulfonamide] | < 50 | – |
| Cc1cnc(-c2ncn3cc(-c4c(F)ccc(NS(=O)(=O)c5cc(F)cnc5C)c4F)ccc23)[nH]1 [Compound 50, N-[2,4-difluoro-3-[1-(4-methyl-3H-imidazol-2-yl)imidazo[1,5-a]pyridin-6-yl]phenyl]-5-fluoro-2-methylpyridine-3-sulfonamide] | < 50 | – |
| COc1ncc(Cl)cc1S(=O)(=O)Nc1ccc(F)c([C@H]2CCn3c(cnc3-c3ncc[nH]3)C2)c1F [Compound 64-2, (S)—N-(3-(3-(1H-imidazol-2-yl)-5,6,7,8-tetrahydroimidazo[1,5-a]pyridin-7-yl)-2,4-difluorophenyl)-5-chloro-2-methoxypyridine-3-sulfonamide] | < 50 | – |
| COc1ncc(C#N)cc1S(=O)(=O)Nc1ccc(F)c(-c2ccc3c(-c4nc5ccccc5[nH]4)ncn3c2)c1F [Compound 66, N-[3-[1-(1H-1,3-benzodiazol-2-yl)imidazo[1,5-a]pyridin-6-yl]-2,4-difluorophenyl]-5-cyano-2-methoxypyridine-3-sulfonamide] | < 50 | – |
| CNC(=O)c1ncn2c1CC[C@H](c1c(F)ccc(NS(=O)(=O)c3cc(F)cnc3OC)c1Cl)C2 [Compound 152-1, (6R)-6-[2-chloro-6-fluoro-3-(5-fluoro-2-methoxypyridine-3-sulfonamido)phenyl]-N-methyl-5H,6H,7H,8H-imidazo[1,5-a]pyridine-1-carboxamide] | – | 50 to 500 |
| CNC(=O)c1ncn2c1CC[C@@H](c1c(F)ccc(NS(=O)(=O)c3cc(Cl)cnc3OC)c1F)[C@H]2C [Compound 96-2, (5R,6S)-6-[3-(5-chloro-2-methoxypyridine-3-sulfonamido)-2,6-difluorophenyl]-N,5-dimethyl-5H,6H,7H,8H-imidazo[1,5-a]pyridine-1-carboxamide] | – | 500 to 1000 |
| COc1ncc(Cl)cc1S(=O)(=O)Nc1ccc(F)c(-c2ccn3c(-c4ncc[nH]4)ncc3c2F)c1F [Compound 41, 5-chloro-N-[2,4-difluoro-3-[8-fluoro-3-(1H-imidazol-2-yl)imidazo[1,5-a]pyridin-7-yl]phenyl]-2-methoxypyridine-3-sulfonamide] | < 50 | – |
| COc1ncc(Cl)cc1S(=O)(=O)Nc1ccc(F)c(-c2ccc3c(-c4nnc[nH]4)ncn3c2)c1F [Compound 29, 5-chloro-N-[2,4-difluoro-3-[1-(4H-1,2,4-triazol-3-yl)imidazo[1,5-a]pyridin-6-yl]phenyl]-2-methoxypyridine-3-sulfonamide] | – | < 50 |
| Cc1ncc(F)cc1S(=O)(=O)Nc1ccc(F)c(-c2ccc3c(-c4ncc[nH]4)ncn3c2F)c1F [Compound 108, N-[2,4-difluoro-3-[5-fluoro-1-(1H-imidazol-2-yl)imidazo[1,5-a]pyridin-6-yl]phenyl]-5-fluoro-2-methylpyridine-3-sulfonamide] | < 50 | – |
| COc1ncc(Cl)cc1S(=O)(=O)Nc1ccc(F)c(-c2cn3cnc(C(=O)NCCCN(C)C)c3cn2)c1F [Compound 172, 6-[3-(5-chloro-2-methoxypyridine-3-sulfonamido)-2,6-difluorophenyl]-N-[3-(dimethylamino)propyl]imidazo[1,5-a]pyrazine-1-carboxamide] | – | 50 to 500 |
| CNC(=O)c1ncn2nc(-c3c(F)ccc(NS(=O)(=O)c4cc(Cl)cnc4C)c3F)ccc12 [Compound 5, 2-[3-(5-chloro-2-methylpyridine-3-sulfonamido)-2,6-difluorophenyl]-N-methylimidazo[1,5-b]pyridazine-5-carboxamide] | < 50 | – |
| CCOc1ncc(Cl)cc1S(=O)(=O)Nc1ccc(F)c(-c2cn3cnc(C(=O)NC)c3cn2)c1F [Compound 167, 6-[3-(5-chloro-2-ethoxypyridine-3-sulfonamido)-2,6-difluorophenyl]-N-methylimidazo[1,5-a]pyrazine-1-carboxamide] | – | 50 to 500 |
| Cc1ncc(F)cc1S(=O)(=O)Nc1ccc(F)c(-c2ccc3c(-c4ncc(CO)[nH]4)ncn3c2)c1F [Compound 51, N-(2,4-difluoro-3-[1-[4-(hydroxymethyl)-3H-imidazol-2-yl]imidazo[1,5-a]pyridin-6-yl]phenyl)-5-fluoro-2-methylpyridine-3-sulfonamide] | < 50 | – |
| COc1ncc(F)cc1S(=O)(=O)Nc1ccc(F)c(-c2ccc3c(-c4ccn(C)n4)ncn3c2)c1F [Compound 46, N-[2,4-difluoro-3-[1-(1-methylpyrazol-3-yl)imidazo[1,5-a]pyridin-6-yl]phenyl]-5-fluoro-2-methoxypyridine-3-sulfonamide] | < 50 | – |
| COc1ncc(F)cc1S(=O)(=O)Nc1ccc(F)c(-c2cn3cnc(-c4nnc(C)[nH]4)c3cn2)c1F [Compound 127, N-[2,4-difluoro-3-[1-(5-methyl-4H-1,2,4-triazol-3-yl)imidazo[1,5-a]pyrazin-6-yl]phenyl]-5-fluoro-2-methoxypyridine-3-sulfonamide] | – | 50 to 500 |
| Cc1ncc(F)cc1S(=O)(=O)Nc1ccc(F)c(-c2cn3cnc(-c4nc5ccccc5[nH]4)c3cn2)c1F [Compound 114, N-[3-[1-(1H-1,3-benzodiazol-2-yl)imidazo[1,5-a]pyrazin-6-yl]-2,4-difluorophenyl]-5-fluoro-2-methylpyridine-3-sulfonamide] | < 50 | – |
| CNC(=O)c1ncn2c(NC)c(-c3c(F)ccc(NS(=O)(=O)c4cc(Cl)cnc4OC)c3F)ccc12 [Compound 24, 6-[3-(5-chloro-2-methoxypyridine-3-sulfonamido)-2,6-difluorophenyl]-N-methyl-5-(methylamino)imidazo[1,5-a]pyridine-1-carboxamide] | > 1000 | – |
| COc1ncc(Cl)cc1S(=O)(=O)Nc1ccc(F)c(-c2ccc3c(CO)ncn3c2)c1F [Compound 94, 5-chloro-N-(2,4-difluoro-3-(1-(hydroxymethyl)imidazo[1,5-a]pyridin-6-yl)phenyl)-2-methoxypyridine-3-sulfonamide] | – | 500 to 1000 |
| CNC(=O)c1ncn2cc(-c3c(F)ccc(NS(=O)(=O)c4cc(Cl)cnc4OC)c3F)sc12 [Compound 120, 2-[3-(5-chloro-2-methoxypyridine-3-sulfonamido)-2,6-difluorophenyl]-N-methylimidazo[4,3-b][1,3]thiazole-7-carboxamide] | – | 500 to 1000 |
| COc1ncc(Cl)cc1S(=O)(=O)Nc1ccc(F)c(-c2cn3cnc(C(N)=O)c3cn2)c1F [Compound 171, 6-[3-(5-chloro-2-methoxypyridine-3-sulfonamido)-2,6-difluorophenyl]imidazo[1,5-a]pyrazine-1-carboxamide] | < 50 | – |
| COc1ncc(Cl)cc1S(=O)(=O)Nc1ccc(F)c(-c2cn3cnc(C(=O)NCC(C)C)c3cn2)c1F [Compound 158, 6-[3-(5-chloro-2-methoxypyridine-3-sulfonamido)-2,6-difluorophenyl]-N-(2-methylpropyl)imidazo[1,5-a]pyrazine-1-carboxamide] | < 50 | – |
| CNC(=O)c1ncn2cc(-c3c(F)ccc(NS(=O)(=O)c4cc(F)cc5c4CCC5O)c3F)ccc12 (stereo not drawn) [Compound 10, 6-[2,6-difluoro-3-(6-fluoro-1-hydroxy-2,3-dihydro-1H-indene-4-sulfonamido)phenyl]-N-methylimidazo[1,5-a]pyridine-1-carboxamide] | < 50 | – |
| COc1ncc(Cl)cc1S(=O)(=O)Nc1ccc(F)c(-c2ccc3c(-c4cnn[nH]4)ncn3c2)c1F [Compound 34, 5-chloro-N-[2,4-difluoro-3-[1-(3H-1,2,3-triazol-4-yl)imidazo[1,5-a]pyridin-6-yl]phenyl]-2-methoxypyridine-3-sulfonamide] | < 50 | – |
| Cc1ncc(F)cc1S(=O)(=O)Nc1ccc(F)c(-c2ccc3c(-c4nnc[nH]4)ncn3c2)c1F [Compound 72, N-[2,4-difluoro-3-[1-(4H-1,2,4-triazol-3-yl)imidazo[1,5-a]pyridin-6-yl]phenyl]-5-fluoro-2-methylpyridine-3-sulfonamide] | < 50 | – |
| CNC(=O)c1ncn2c1CC[C@H](c1c(F)ccc(NS(=O)(=O)c3cc(C#N)cnc3OC)c1F)C2 [Compound 68-1, (R)-6-(3-((5-cyano-2-methoxypyridine)-3-sulfonamido)-2,6-difluorophenyl)-N-methyl-5,6,7,8-tetrahydroimidazo[1,5-a]pyridine-1-carboxamide] | – | 50 to 500 |
| COc1ncc(Cl)cc1S(=O)(=O)Nc1ccc(F)c(-c2ccc3c(-c4ccn[nH]4)ncn3c2F)c1F [Compound 105, 5-chloro-N-[2,4-difluoro-3-[5-fluoro-1-(2H-pyrazol-3-yl)imidazo[1,5-a]pyridin-6-yl]phenyl]-2-methoxypyridine-3-sulfonamide] | < 50 | – |
| COc1ncc(Cl)cc1S(=O)(=O)Nc1ccc(F)c(-c2ccc3c(-c4ncc(C)[nH]4)ncn3c2)c1F [Compound 48, 5-chloro-N-[2,4-difluoro-3-[1-(4-methyl-3H-imidazol-2-yl)imidazo[1,5-a]pyridine-6-yl]phenyl]-2-methoxypyridine-3-sulfonamide] | < 50 | – |
